The source of these data is patent US20250262167A1, “COMPOUNDS, TARGETS AND PATHWAYS FOR MACROPHAGE MODULATION” (Massachusetts Institute of Technology, priority 2020, published 2025).

For test [1], the system named is hMDMs differentiated into M1 by IFNγ plus TNFα. The test is described as follows: Reprogramming screen and dosage response on M1-like differentiated macrophages. The test is classed as cell-based, human. Particulars: for EC (M2 Z-score cutoff): M2-activating compounds on M1-like macrophages (IFNγ plus TNFα), EC = concentration reaching Z-score cutoff; for Category: differentiated macrophages.
Description: Data were summarized from 3 independent experiments.
Human macrophages were seeded into optical 384-well plates. Sixteen hours later, medium in M1 plates were replaced by M1 differentiating medium (complete RPMI with 50 ng/mL IFNγ and 50 ng/mL TNFα) and medium in M2 plates by M2 differentiating medium (complete RPMI with 5 ng/mL IL-4 and 5 ng/mL IL-13). After 24 hrs cell differentiation, M1 plates (M1 macrophages) and M2 plates (M2 macrophages) were treated with M2-activating compounds and M1-activating compounds respectively for 24 hrs. Two independent experiments were performed with or without replacing differentiating medium right before treatment. Cell imaging and analysis were performed as indicated above.
To investigate whether the identified compounds could reprogram or reactivate macrophages after M1- or M2-like differentiation, we rescreened the hits on M1- or M2-activated macrophages. hMDMs were activated into M2-like macrophages by IL-4 plus IL-13 or M1-like macrophages by IFNγ plus TNFα. […] 24 hours later, cell images were taken and cell shapes were quantified.
We also rescreened the hits on differentiated macrophages in the presence of differentiating cytokines: either IL-4 plus IL-13 or IFNγ plus TNFα.

Test [2] deals with hMDMs. The test is described as follows: RNA-seq transcriptional response of hMDMs (GSEA, GO enrichment). The format is cell-based, human. Particulars: for gene expression of TPP modules (#30, #32) / gene expression of typical M1 modules (#7, #8): hMDMs, 24 hrs, GSEA; for macrophage phenotype at transcriptional and translational level: human macrophages.
Description: Duplicate hMDM samples were treated with 2 M2-activating and 6 M1-activating compounds as well as IL-4 and IFNγ for 24 hrs. Gene expression levels were measured by RNA-seq separately. GSEA preranked analysis was performed based on the whole genome gene list ranked on gene expression changes using a gene set of 49 transcriptional modules in response to 29 stimuli in hMDMs. bosut.: bosutinib; alster.: alsterpaullone; mocet.: mocetinostat; thios.: thiostrepton; niclo.: niclosamide; chlor.: chlorhexidine; fenb.: fenbendazole; fluvo.: fluvoxamine. […] Duplicate hMDM samples were stimulated with each ligand and analyzed by RNA-seq separately.
RNAs were extracted with RNeasy MiniElute kit (Qiagen), converted into cDNA and sequenced using Next-Generation Sequencing (Illumina). […] Differential expression analysis was performed using the program edgeR at P<0.05 with a 2 fold-change. The gene expression level across different samples was normalized and quantified using the function of cpm. Differentially expressed genes were annotated using online functional enrichment analysis tool DAVID (http://david.ncifcrf.gov/). Gene set enrichment analysis were performed with GSEA with FDR q-value<0.05.
Fresh hMDMs were treated with compounds at the EC for 24 hours, followed by RNA-seq.
The test system of test [3] is human monocyte-derived macrophages (hMDMs). The test is described as follows: High throughput phenotypic screen of macrophage activation (cell shape, Z-score).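 For all read-outs here: phalloidin and DAPI stained hMDMs imaged by high-content microscopy, cell eccentricity compared with DMSO control by T-test, round morphology scored negative, elongated positive.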 Set-up: key to Average Z-value: Z-score vs DMSO; negative = round cells, positive = elongated. Conditions: for activation state induced in the screen: compounds regulating actin-cytoskeleton. The format is cell-based.

Test [4] relates to M0 macrophages (hMDMs). As to the kind of experiment: Dosage response of cell shape change on M0 macrophages. The test is classed as cell-based, human. Conditions: M0 macrophages; for EC: EC = concentration inducing cell morphology changes to reach the M1 or M2 Z-score cutoff, Michaelis-Menten fit, 3 independent experiments, unit of the source corrected; for Max absolute Z-value: Max Z-score from Michaelis-Menten equation, negative = round, positive = elongated.

Test [5] has as its system hMDMs differentiated into M2 by IL-4 plus IL-13. As to the kind of experiment: Reprogramming screen and dosage response on M2-like differentiated macrophages.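 For all read-outs here: human monocyte-derived macrophages held 24 h in 5 ng/mL IL-4 plus IL-13 before 24 h compound exposure, with cell shape measured from images in 384-well plates.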 Conditions: for EC (M1 Z-score cutoff): Homo sapiens, Macrophage, 24 h, read-out: EC; for EC: M1-activating compounds on M2-like macrophages (IL-4 plus IL-13), EC = concentration reaching Z-score cutoff; for Category: differentiated macrophages.

Test [6] concerns subcutaneous B16F10 tumors. The test is described as follows: B16F10 melanoma model in B6 mice. The test is classed as in vivo, mouse. Conditions: i.p. 1 mg/kg.
Test [7] deals with mouse bone marrow macrophages (BMMs). The test is described as follows: Development and function of TAM/M2-like macrophages in vitro (qPCR, flow cytometry). Particulars: mouse BMMs, induced by IL4/IL13, 24 hours. The format is cell-based. The method, then:
DEGs were identified by edgeR at P<0.05 with at least 2 fold-change. Data for genes that were not classified as differentially expressed are plotted in black. […] Mouse BMMs were cultured in normal medium with or without 2.5 μM thiostrepton for 24 hrs (group 1), or cultured in B16F10 tumor cell conditioned medium (CM) with or without 2.5 μM thiostrepton for 24 hrs (group 2), or cultured with B16F10 tumor cell CM for 24 hrs first and then treated with 2.5 μM thiostrepton for another 24 hrs (group 3). The transcript levels of the indicated genes were quantified by qPCR. Data were summarized from two independent experiments. […] Mouse BMMs were treated with thiostrepton for 24 hrs. Untreated and treated macrophages were co-cultured with equal number of B16F10 melanoma cells for 12 hrs. The number of tumor cells were quantified by flow cytometry after subtracting macrophages from total number of cells. Data were summarized from three independent experiments. ** P<0.01 by T-test.
Expression of MHCII, CD80, iNOS, Arg1 and CD206 were quantified by flow cytometry. Shown are representative staining profiles of treated (red) and untreated (dark) TAMs from two independent experiments. […] Alternatively, mouse BMMs were polarized with IL-4/IL-13 (group 3) or lactic acid (group 5) for 24 hrs first and then either not treated or treated with […] thiostrepton for another 24 hrs. The transcript levels of the indicated genes were quantified by qPCR. Data are summarized from two independent experiments.
Mouse BMMs were not treated or treated with […] thiostrepton for 24 hours in normal medium (group 1) or in the presence of IL4/IL13 (group 2), or mouse BMMs were polarized with IL4/IL13 for 24 hours and then either not treated or treated with […] thiostrepton for 24 hours (group 3). RNA was isolated and the transcript levels of the indicated genes were quantified by PCR. Data, shown as mean±s.d., were summarized from two independent experiments. * P<0.05 and ** P<0.01 by T-test. […] Data are shown as mean±s.e.m. FIGS. 19C-19D show flow cytometry analysis of TAM (F4/80^+CD11b^+Ly6C^−Ly6G^−), inflammatory monocytes (F4/80′^intCD11b^+Ly6C^+Ly6G^−) and monocytes (F4/80^−CD11b^+Ly6C^+Ly6G^+) in the tumors of mice treated with DMSO, TA99, cucurbitacin I, and cucurbitacin I plus TA99 18 days after tumor engraftment. Shown are representative F4/80 versus CD11b staining profiles gating on CD45+ cells and MHCII histograms gating on macrophages from c.
Mouse bone marrow-derived macrophages (mBMM) were prepared as described previously^54. Briefly, fresh bone marrow cells were isolated from B6 mice. Cells were plated into 6-well plate with 1×10^6/mL in complete RPMI with 2-mercaptoethanol and cultured for 6 days with fresh medium change every 2 days. mBMMs were differentiated to resemble TAMs in the presence of 10 ng/mL mIL-4 and mIL-13 (Peprotech) or 25 mM lactate acid for 24 hrs or tumor conditioned medium (CM). To prepare CM, 70% confluent B16F10 cultured were replaced with fresh medium and the tumor medium was collected and filtered ([…]) 24 hrs later. The mixture of 3 volumes of tumor medium with 1 volume of complete RPMI for mBMM serves as the CM. Expression of Arg, Fizz1 and Vegfa were quantified by qPCR to assess the development of TAMs. Other genes of Tnf, Il1b, Nos2, Cxcl2, Ccl5, Ym1 and Tgfb serve as macrophage activating markers. To assay the tumor growth inhibition, mBMMs (10,000 cells per well in 96 well plate) were treated with thiostrepton for 24 hrs and then cocultured with equal number of B16 melanoma cells in fresh complete RPMI for 12 hrs. The conditioned medium treated or not treated with thiostrepton were collected and filtered. The numbers of B16 melanoma cells were cultured for 12 hrs with conditioned medium or conditioned medium heated at 95° C. for 5 min. Tumor cells were quantified by flow cytometry to determine the macrophage-dependent killing function. […]

In the case of `Cc1nc(Nc2ncc(C(=O)Nc3c(C)cccc3Cl)s2)cc(N2CCN(CCO)CC2)n1` [Dasatinib], the EC (M2 Z-score cutoff) in test [1] (Homo sapiens, Macrophage, 24 h) was 0.762 µM. Same read-out and setting: the same measure for `CNC(=O)c1cc(Oc2ccc(NC(=O)Nc3ccc(Cl)c(C(F)(F)F)c3)cc2)ccn1` [Sorafenib]: 0.794 µM. Consider `NCCc1ccc(O)c(O)c1` [dopamine], for which, in test [2], the “gene expression of TPP modules (#30, #32)” value (“gene expression … (#30, #32)” for short) is “up-regulated” and the “gene expression of typical M1 modules (#7, #8)” value (“gene expression … (#7, #8)” for short) is given as “down-regulated”. VEGF: in test [2], the “gene expression … (#30, #32)” value is given as “down-regulated” and the “gene expression … (#7, #8)” value is on record as “up-regulated”. Turning to `CC(C)[C@]12O[C@H]1[C@@H]1O[C@]13[C@]1(O[C@H]1C[C@H]1C4=C(CC[C@@]13C)C(=O)OC4)[C@@H]2O` [triptolide], the EC (M2 Z-score cutoff) in test [1] (Homo sapiens, Macrophage, 24 h) is 0.0619 µM. For the molecule `CNC(=O)c1cc(Oc2ccc(NC(=O)Nc3ccc(Cl)c(C(F)(F)F)c3)c(F)c2)ccn1` [Regorafenib], the EC (M2 Z-score cutoff) in test [1] (Homo sapiens, Macrophage, 24 h) came to 2.88 µM. With `O=C1NC(=O)c2c1c1c3ccccc3[nH]c1c1[nH]c3ccccc3c21` [Arcyriaflavin A], in test [1], the EC (M2 Z-score cutoff) is recorded as 1.342 µM and the Category result is listed as “M2 (6 for M2-activated macrophages)”. `COc1cc2ncn(-c3cc(OCc4ccccc4C(F)(F)F)c(C(N)=O)s3)c2cc1OC` [GW-843682X]: the EC (M2 Z-score cutoff) in test [1] (Homo sapiens, Macrophage, 24 h) came to 0.897 µM. As to `CC(C)C[C@H](NC(=O)CNC(=O)c1cc(Cl)ccc1Cl)B(O)O` [MLN2238], in test [3] (cell shape Z-score of hMDMs averaged over the compounds listed for the Wiki pathway, compounds at 20 µM for 24 hours, positive values = M2-like), the “Average Z-value” came to 7.13. The EC (M2 Z-score cutoff) in test [1] (Homo sapiens, Macrophage, 24 h) came to 3.46 µM. Take `CN1c2cc3c(cc2N=C(c2ccc(C(=O)O)cc2)c2ccccc21)C(C)(C)CCC3(C)C` [LE135]: in test [4], the Category result is reported as “M1 (−4 for M1-activated macrophages)”, the EC was found to be 0.419 µM and the “Max absolute Z-value” is recorded as −8.912.

Consider `NCCc1c[nH]c2ccc(O)cc12` [5HT, serotonin], for which, in test [2], the “gene expression … (#30, #32)” value is on record as “down-regulated” and the “gene expression … (#7, #8)” value was “up-regulated”. Take `O=C(c1ccc(/C=C/c2n[nH]c3ccccc23)cc1)N1CCNCC1` [KW 2449]: the EC (M2 Z-score cutoff) in test [1] (Homo sapiens, Macrophage, 24 h) was found to be 2.16 µM. The same measure, in the same setting: next, `CO[C@H]1C[C@H](O[C@@H]2/C(C)=C/C[C@@H]3C[C@@H](C[C@]4(CC[C@H](C)[C@@H](C5CCCCC5)O4)O3)OC(=O)[C@@H]3C=C(C)/C(=N/O)[C@H]4OC/C(=C\C=C\[C@@H]2C)[C@]43O)O[C@@H](C)[C@@H]1O` [SELAMECTIN]: 15 µM; `COCCNCc1ccc(-c2cc3nccc(Oc4ccc(NC(=S)NC(=O)Cc5ccc(F)cc5)cc4F)c3s2)nc1` [MGCD-265]: 0.911 µM.

Take `CC(=O)O[C@H]1C(=O)[C@@]2(C)[C@H]([C@H](OC(=O)c3ccccc3)[C@]3(O)C[C@H](OC(=O)[C@H](O)[C@@H](NC(=O)c4ccccc4)c4ccccc4)C(C)=C1C3(C)C)[C@]1(OC(C)=O)CO[C@@H]1C[C@@H]2O` [Taxol]: the EC (M1 Z-score cutoff) in test [5] turned out to be 0.129 µM. Also, the “macrophage phenotype at transcriptional and translational level” value in test [2] was “activated macrophages toward M1-like phenotype”. Moreover, in test [3], the “activation state induced in the screen” value is reported as “M1-activating”. As to `COc1cc(Nc2c(C#N)cnc3cc(OCCCN4CCN(C)CC4)c(OC)cc23)c(Cl)cc1Cl` [Bostunib], the EC (M2 Z-score cutoff) in test [1] (Homo sapiens, Macrophage, 24 h) came to 0.164 µM. In the case of JTE 013, in test [1], the EC (M2 Z-score cutoff) is 0.9381 µM and the Category result is “M2 (6 for M2-activated macrophages)”. Turning to `O=C(Nc1nc2ccc(NC(=O)C34CC5CC(CC(C5)C3)C4)cc2s1)c1ccccc1` [NVP 231], in test [5], the EC was 5.745 µM and the Category result is “M1 (−4 for M1-activated macrophages)”. Moreover, the “Average Z-value” in test [3] (cell shape Z-score of hMDMs treated with compound at 20 µM for 24 hours, averaged over the compounds listed for the WikiPathways pathway, negative = M1-like, positive = M2-like) is on record as −4.79. Also, in test [4], the Category result was “M1 (−4 for M1-activated macrophages)”, the EC amounted to 2.25 µM and the “Max absolute Z-value” is on record as −22.37.

With `OC[C@H](Cc1ccccc1)Nc1nc(Oc2ccc3c(c2)CCC3)nc2c1ncn2Cc1ccc(-c2ccccc2)cc1` [QS 11], in test [1], the EC (M2 Z-score cutoff) is reported as 0.2611 µM and the Category entry was “M2 (6 for M2-activated macrophages)”. In the case of `CC(C)(C)n1nc(-c2cccc3ccccc23)c2c(N)ncnc21` [1-Naphthyl PP1], in test [1], the EC (M2 Z-score cutoff) was determined as 2.072 µM and the Category entry is “M2 (6 for M2-activated macrophages)”. Turning to `Cc1c(C(=O)Nc2ccc(N3C[C@@H](C)O[C@@H](C)C3)nc2)cccc1-c1ccc(OC(F)(F)F)cc1` [NVP-LDE225], the EC (M2 Z-score cutoff) in test [1] (Homo sapiens, Macrophage, 24 h) was found to be 2.77 µM. Turning to `COC(=O)Nc1nc2ccc(Sc3ccccc3)cc2[nH]1` [Fenbendazole], the EC (M1 Z-score cutoff) in test [5] came out at 0.649 µM. In addition, the “macrophage phenotype at transcriptional and translational level” value in test [2] is listed as “activated macrophages toward M1-like phenotype”. The “activation state induced in the screen” value in test [3] is reported as “M1-activating”. For `CC(C)(O)/C=C/C(=O)[C@](C)(O)[C@H]1[C@H](O)C[C@@]2(C)[C@@H]3CC=C4[C@@H](C=C(O)C(=O)C4(C)C)[C@]3(C)C(=O)C[C@]12C` [Cucurbitacin I], the B16F10 growth entry in test [6] is listed as “inhibited”. Besides, in test [5], the EC worked out at 1.759 µM and the Category entry is recorded as “M1 (−4 for M1-activated macrophages)”. In addition, in test [7], the “development and function of tumor-associated macrophages in vitro” value is reported as “inhibits”. Further, in test [4], the Category result is recorded as “M1 (−4 for M1-activated macrophages)”, the EC was found to be 0.342 µM and the “Max absolute Z-value” is reported as −4.808.

As for leptin: ligand of novel pathway, in test [2], the “gene expression … (#30, #32)” value was “down-regulated” and the “gene expression … (#7, #8)” value is “up-regulated”. Turning to `CC[C@H](C)C(=O)O[C@H]1C[C@@H](C)C=C2C=C[C@H](C)[C@H](CC[C@@H]3C[C@@H](O)CC(=O)O3)[C@H]21` [lovastatin], in test [1] (Homo sapiens, Macrophage, 24 h), the EC (M2 Z-score cutoff) was determined as 0.442 µM. On the same count and under the same terms, the same measure for `c1ccc2c(Oc3nc(Nc4ccc(N5CCOCC5)cc4)c4ncn(C5CCCCC5)c4n3)cccc2c1` [Purmorphamine]: 2.35 µM; for `CNC(=O)c1ccccc1Sc1ccc2c(/C=C/c3ccccn3)n[nH]c2c1` [Axitinib]: 0.591 µM.
